Experimental data taken from ChEMBL document CHEMBL1201862, “PubChem BioAssay data set” (2004).
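Values below derive from 48-hour exposures of cells grown in 96-well plates, with endpoints linearly interpolated between the two concentrations bracketing the appropriate inhibition level. GI50 = concentration required for 50% inhibition of growth.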 The source made the active and inactive calls. Cut-off read from the data, not from the text of the source: active = GI50 up to about 1.1 µM and inactive = higher. Starred links: 1 amine or outer side, 2 acyl side, 3 side chain; linkers in the order of their positions; H or OH if unused. Residues, ends and D or L forms follow the SMILES beside them. *: point of attachment. γGlu = O=C(O)[CH](CCC(=O)[*:2])N[*:1]; NHOH = ON*

Experiments:
Experiment in all cases: growth of human tumour cells (NCI), 48 h
SK-MEL-28 = system: SK-MEL-28
DU-145 = system: DU-145
SK-MEL-5 = system: SK-MEL-5
HCC 2998 = system: HCC 2998
SK-MEL-2 = system: SK-MEL-2
NCI-H460 = system: NCI-H460
HOP-92 = system: HOP-92
MOLT-4 = system: MOLT-4
PC-3 = system: PC-3
KM12 = system: KM12
HCT-15 = system: HCT-15
MDA-N = system: MDA-N
SNB-19 = system: SNB-19
786-0 = system: 786-0
MDA-MB-231 = system: MDA-MB-231
CAKI-1 = system: CAKI-1
SNB-75 = system: SNB-75
RPMI-8226 = system: RPMI-8226
SR = system: SR
SF-539 = system: SF-539

Row | SMILES | GI50 (SK-MEL-28) | GI50 (DU-145) | GI50 (SK-MEL-5) | GI50 (HCC 2998) | GI50 (SK-MEL-2) | GI50 (NCI-H460) | GI50 (HOP-92) | GI50 (MOLT-4) | GI50 (PC-3) | GI50 (KM12) | GI50 (HCT-15) [µM] | GI50 (MDA-N) | GI50 (SNB-19) | GI50 (786-0) | GI50 (MDA-MB-231) | GI50 (CAKI-1) | GI50 (SNB-75) | GI50 (RPMI-8226) | GI50 (SR) | GI50 (SF-539)
1 | Cn1c(=O)c2nc(CCCCC(=O)O)[nH]c2n(C)c1=O | > 100 µM (inactive) | > 100 µM (inactive) | > 100 µM (inactive) | > 100 µM (inactive) | > 100 µM (inactive) | > 100 µM (inactive) | > 100 µM (inactive) | > 100 µM (inactive) | > 100 µM (inactive) | > 100 µM (inactive) | > 100 | > 100 µM (inactive) | > 100 µM (inactive) | > 100 µM (inactive) | > 100 µM (inactive) | > 100 µM (inactive) | > 100 µM (inactive) | – | – | –
2 | COc1ccc(C[C@H]2COC(=O)[C@@H]2Cc2ccccc2)cc1OC | > 100 µM (inactive) | > 100 µM (inactive) | > 100 µM (inactive) | – | – | > 100 µM (inactive) | – | > 100 µM (inactive) | > 100 µM (inactive) | > 100 µM (inactive) | – | > 100 µM (inactive) | > 100 µM (inactive) | > 100 µM (inactive) | > 100 µM (inactive) | – | – | > 100 µM (inactive) | > 100 µM (inactive) | –
3 | COc1ccc(OC)c2sc(N3C(=O)/C(=C/c4cccc(Oc5ccccc5)c4)N=C3c3ccccc3)nc12 | > 100 µM (inactive) | > 100 µM (inactive) | 47.5 µM (inactive) | > 100 µM (inactive) | > 100 µM (inactive) | > 100 µM (inactive) | > 100 µM (inactive) | 31.9 µM (inactive) | > 100 µM (inactive) | 70 µM (inactive) | 87.9 | 38 µM (inactive) | > 100 µM (inactive) | > 100 µM (inactive) | > 100 µM (inactive) | > 100 µM (inactive) | > 100 µM (inactive) | 38.8 µM (inactive) | – | –
4 | O=C1N/C(=N/N=C/C(O)C(O)C(O)C(O)CO)N/C1=C\c1c[nH]c2ccccc12 (centres undefined) | > 100 µM (inactive) | > 100 µM (inactive) | > 100 µM (inactive) | > 100 µM (inactive) | 28.3 µM (inactive) | > 100 µM (inactive) | > 100 µM (inactive) | 93.8 µM (inactive) | 20.3 µM (inactive) | 52.4 µM (inactive) | > 100 | > 100 µM (inactive) | 38.4 µM (inactive) | > 100 µM (inactive) | 34.2 µM (inactive) | > 100 µM (inactive) | > 100 µM (inactive) | 89.7 µM (inactive) | – | > 100 µM (inactive)
5 | COc1ccc(C(NS(=O)(=O)c2ccc(C)cc2)c2c(C(CBr)OC)c3ccccc3n2S(=O)(=O)c2ccccc2)cc1OC (centres undefined) | > 100 µM (inactive) | > 100 µM (inactive) | > 100 µM (inactive) | > 100 µM (inactive) | > 100 µM (inactive) | > 100 µM (inactive) | 85.5 µM (inactive) | > 100 µM (inactive) | > 100 µM (inactive) | > 100 µM (inactive) | > 100 | > 100 µM (inactive) | > 100 µM (inactive) | > 100 µM (inactive) | 52.8 µM (inactive) | > 100 µM (inactive) | 34.7 µM (inactive) | – | – | > 100 µM (inactive)
6 | CCOC(=O)CNC(=O)C(CCC(=O)NO)NC(=O)CCC(N)C(=O)O (centres undefined) (γGlu-Glu(NHOH)-Gly-OEt; configuration not given here) | > 100 µM (inactive) | > 100 µM (inactive) | > 100 µM (inactive) | > 100 µM (inactive) | > 100 µM (inactive) | > 100 µM (inactive) | > 100 µM (inactive) | > 100 µM (inactive) | > 100 µM (inactive) | > 100 µM (inactive) | > 100 | > 100 µM (inactive) | > 100 µM (inactive) | > 100 µM (inactive) | > 100 µM (inactive) | > 100 µM (inactive) | > 100 µM (inactive) | > 100 µM (inactive) | – | > 100 µM (inactive)
